# Source: patent US6727266B2, “Substituted tryptophan derivatives” (Shionogi & Co., Ltd., priority 2000, dated 2004)
# pIC50: −log10 of the molar value.
# Legend:
# MMP-9 = molecular target: T1, MMP-9 (Homo sapiens, UniProt P14780); assay: Assay for inhibitory activities on MMP-9 (fluorogenic MOCAc peptide substrate); assay type: biochemical; settings: MMP-9 purified from human fibrosarcoma HT1080 cells, activated by TPCK-Trypsin
# T1 construct: made in house; host or cells: Endogenous secretion by human fibrosarcoma HT1080 cells (ATCC) treated with TPA; purified from the culture medium
# T1 sequence (P14780 107-707 limits assumed): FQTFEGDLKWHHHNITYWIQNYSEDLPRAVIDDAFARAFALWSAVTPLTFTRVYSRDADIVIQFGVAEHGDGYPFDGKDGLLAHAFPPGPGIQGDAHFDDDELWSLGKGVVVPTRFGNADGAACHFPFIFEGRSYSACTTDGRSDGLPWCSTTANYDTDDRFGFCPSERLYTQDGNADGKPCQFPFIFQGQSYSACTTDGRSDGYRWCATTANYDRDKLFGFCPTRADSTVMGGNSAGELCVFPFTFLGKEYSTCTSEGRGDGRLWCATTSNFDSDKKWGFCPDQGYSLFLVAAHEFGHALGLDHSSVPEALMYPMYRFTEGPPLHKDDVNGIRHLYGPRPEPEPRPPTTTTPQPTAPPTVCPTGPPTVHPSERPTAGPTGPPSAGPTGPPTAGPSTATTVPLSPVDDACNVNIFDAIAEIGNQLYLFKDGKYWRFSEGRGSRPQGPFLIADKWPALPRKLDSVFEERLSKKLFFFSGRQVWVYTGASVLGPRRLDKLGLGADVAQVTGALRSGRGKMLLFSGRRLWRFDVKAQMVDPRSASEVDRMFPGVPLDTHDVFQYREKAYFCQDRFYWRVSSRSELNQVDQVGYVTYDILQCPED
# Text: MMP-9 was purified by using a combination of procedures described in the method descrived in Y. Okada et al. (Yasunori Okada, Yukio Gonoji, Katsumi Naka, Katsuro Tomita, Isao Nakanishi, Kazushi Iwata and Taro Hayakawa: Matrix metalloproteinase 9 (92-kDa gelatinase/type IV collagenase) from HT1080 human fibrosarcoma cells. Purification and activation of the precursor and enzymic properties. J. Biol. Chem., 267 (1992) 21712-21719 and the other method (1) Yasunori Okada, Tatsuhisa Morodomi, Jan J, Enghild, Ko Suzuki, Atsushi Yasui, Isao Nakanishi, Guy Salvesen and Hideaki Nagase: Matrix metalloproteinase 2 from human rheumatoid synovial fibroblasts. Purification and activation of the precursor and enzymic properties. Eur. J. Biochem. 194 (1990) 721-730 or (2) Robin V Ward, Rosalind M Hembry, John J Reynolds and Gillian Murphy: The purification of tissue inhibitor of metalloproteinase-2 from its 72 kDa progelatinase complex. Biochem. J. 278 (1991) 179-187. Briefly, human fibrosarcoma ATCC HT1080 cell line was cultured to confluent in Dulbecco's Modified Medium (DMEM) containing 10% fetal-calf serum (FCS) at 37° C. for 48 hours (5%). Further, Confluent Cell was cultured in DMEM removed FCS (2nd). To obtain MMP-9, Phorbol-12-myristate-13-acetate (TPA) was added to this DMEM medium at a concentration of 50 ng/ml. The TPA treated medium was centrifuged at 3000 rpm for 15 min and the supernatant was concentrated to 450 ml by a Toyo-Roshi UP-20 apparatus with an ultrafiltration membrane. Then, this concentrated solution was purified by Gelatin-Sepharose and Concanavalin A-Sepharose. The pool containing MMP-9 was dialyzed, concentrated (Toyo-Roshi UP-20) and applied to columns of Sephacryl S-200 and Green A matrix for the separation from TIMP. The obtained Procollagenase was activated by TPCK-Trypsin (final conc. 3 μg/μl reaction mix.) for the assay.
# (§1) The enzymatic activity on each MMP was analyzed by the method described in “C Graham Knight, Frances Willenbrock and Gillian Murphy: A novel coumarin-labelled peptide for sensitive continuous assays of the matrix metalloproteinases: FEBS LETT., 296, (1992), 263-266”. The substrate: MOCAc-Pro-Leu-Gly-Leu-A2Pr(DNP)-Ala-Arg-NH2 was purchased from Peptide Institute, Inc., Osaka, Japan.
# (§2) The measurement of the inhibitory activities of a compound (inhibitor) was carried out by the following four methods;
# (§3) A) Reaction with substrate, enzyme (MMPs) and inhibitor
# (§4) B) Reaction with substrate and inhibitor, without enzyme
# (§5) C) Reaction with substrate and enzyme (MMPs), without inhibitor
# (§6) D) Reaction with substrate only
# (§7) Each fluorescence values of above four methods was measured and % inhibition was calculated by using the following formula.
# (§8) % inhibition={1−(A−B)/(C−D)}×100
# (§9) IC50 means the concentration required to inhibit 50% of the enzyme activity.
# MMP-2 = molecular target: T2, MMP-2 (Homo sapiens, UniProt P08253); assay: Assay for inhibitory activities on MMP-2 (fluorogenic MOCAc peptide substrate); assay type: biochemical; settings: MMP-2 purchased from Calbiochem-Novabiochem
# T2 construct: purchased Calbiochem-Novabiochem International, Inc
# T2 sequence (P08253 110-660): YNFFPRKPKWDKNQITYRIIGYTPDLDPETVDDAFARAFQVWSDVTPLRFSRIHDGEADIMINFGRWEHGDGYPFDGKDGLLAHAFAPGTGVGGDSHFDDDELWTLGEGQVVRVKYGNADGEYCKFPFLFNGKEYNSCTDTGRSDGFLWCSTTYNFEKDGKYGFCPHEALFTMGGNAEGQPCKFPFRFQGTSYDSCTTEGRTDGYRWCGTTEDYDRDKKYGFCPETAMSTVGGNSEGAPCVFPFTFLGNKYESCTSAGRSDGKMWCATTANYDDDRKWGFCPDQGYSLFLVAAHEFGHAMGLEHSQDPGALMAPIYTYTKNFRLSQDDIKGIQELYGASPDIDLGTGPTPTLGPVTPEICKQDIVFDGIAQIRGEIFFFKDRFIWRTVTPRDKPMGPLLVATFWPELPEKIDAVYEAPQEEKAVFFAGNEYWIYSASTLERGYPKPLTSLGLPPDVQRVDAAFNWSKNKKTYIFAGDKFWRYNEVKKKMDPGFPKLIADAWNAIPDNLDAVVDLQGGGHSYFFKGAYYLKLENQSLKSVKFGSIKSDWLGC
# Method: MMP-2 was purchased from Calbiochem-Novabiochem International, Inc.
# as §1, §2, §3, §4, §5, §6, §7, §8, §9
pIC50 (MMP-9),melting point,pIC50 (MMP-2),Compound
8.61,200 to 202 °C (dec.),9.65,Cc1ccc(C#Cc2ccc(S(=O)(=O)N[C@H](Cc3c[nH]c4ccc(O)cc34)C(=O)O)s2)cc1 [Compound A-1]
7.81,,7.97,COc1ccc2[nH]cc(C[C@@H](NS(=O)(=O)c3ccc(C#Cc4ccc(C)cc4)s3)C(=O)O)c2c1 [Compound A-2]
6.76,,7.64,COc1cccc2[nH]cc(C[C@@H](NS(=O)(=O)c3ccc(C#Cc4ccc(C)cc4)s3)C(=O)O)c12 [Compound A-3]
7.61,,9.11,Cc1ccc(C#Cc2ccc(S(=O)(=O)N[C@H](Cc3c[nH]c4cccc(O)c34)C(=O)O)s2)cc1 [Compound A-4]
8.19,,8.92,Cc1ccc(C#Cc2ccc(S(=O)(=O)N[C@H](Cc3c[nH]c4c(O)cccc34)C(=O)O)s2)cc1 [Compound A-5]
6.07,,7.04,Cc1ccc(C#Cc2ccc(S(=O)(=O)N[C@@H](Cc3c[nH]c4ccc(F)cc34)C(=O)O)s2)cc1 [Compound A-6]
8.18,,9.21,COc1ccc2[nH]cc(C[C@@H](NS(=O)(=O)c3ccc(-c4ccc(N(C)C)cc4)s3)C(=O)O)c2c1 [Compound A-8]
9.27,,9.86,O=C(O)[C@@H](Cc1c[nH]c2ccc(F)cc12)NS(=O)(=O)c1ccc(-c2ccc(N3CCCC3)cc2)s1 [Compound A-9]
7.92,,8.39,O=C(O)[C@H](Cc1c[nH]c2ccc(F)cc12)NS(=O)(=O)c1ccc(-c2ccc(N3CCCC3)cc2)s1 [Compound A-10]
7.80,,8.24,COc1ccc(-n2nnc(-c3ccc(S(=O)(=O)N[C@H](Cc4c[nH]c5ccc(OC)cc45)C(=O)O)cc3)n2)cc1 [Compound A-11]
5.85,,7.07,O=C(O)[C@H](Cc1c[nH]c2ccc(F)cc12)NS(=O)(=O)c1ccc(-c2nnn(-c3ccccc3)n2)cc1 [Compound A-12]
